{"source": "patent US10633707B2", "about": "“Markers for detecting microsatellite instability in cancer and determining synthetic lethality with inhibition of the DNA base excision repair pathway” (VIB VZW, priority 2012, dated 2020)", "key": {"[1]": {"test_system": "MMR-deficient primary tumor cultures and cancer cell lines", "assay": "RAD51 immunostaining (RAD51 foci formation) after olaparib, MMR-deficient cells", "type": "cell-based, human", "settings": "10 μM olaparib, 24 hours, average of 8 MMR-deficient cultures", "protocol": "(§1) To investigate whether the DSB repair by HR pathway is functionally inactivated in MMR-deficient tumors, it was assessed the DSB repair activity in eight MMR-deficient and four MMR-proficient primary tumor cultures and cancer cell lines. The MMR status of these cells was analyzed using the 56-marker panel and confirmed by the Bethesda Panel.\n(§2) Nine primary endometrial and ovarian tumor cell cultures were established from patients undergoing surgery at the Division of Gynecologic Oncology, University Hospitals Gasthuisberg, Leuven (Belgium). Only after providing informed consent, patients were included in the study. The following protocol was used to generate primary tumor cultures. First, tumor samples were placed into sterile RPMI medium supplemented with Penicillin/Streptomycin (1000 U/ml) and Fungizone (0.5 μg/ml) (all from Life Technologies) for transport from the surgery room to the cell culture laboratory. […]\n(§3) Primary tumor cell cultures were grown in RPMI Medium 1640 (Gibco) supplemented with 20% fetal bovine serum, 2 mM L-Glutamine, 100 U/ml of penicillin, 100 μg/ml of streptomycin, 1 μg/ml of fungizone and 10 μg/ml of gentamicin up to 20 passages. […] They were also routinely monitored for Mycoplasma contamination and no Mycoplasma growth has been detected. […]"}, "[2]": {"test_system": "MMR-deficient cells", "assay": "Cell proliferation with xCELLigence RTCA system, MMR-deficient cells", "type": "cell-based, human", "settings": "for decrease in proliferation versus untreated cells: average of 8 MMR-deficient cultures, 48 hours", "protocol": "(§4) As MMR-deficient tumors are characterized by reduced activity of the DSB repair by HR pathway, it was hypothesized that these tumors, similar to BRCA1-deficient tumors (Farmer et al., 2005), can be selectively targeted by PARP inhibition. All eight MMR-deficient and four MMR-proficient cultures were dose-dependently (1, 3 and 10 μM) exposed to olaparib and effects on proliferation were assessed.\nReal-Time Cell Analyzer (RTCA) xCELLigence System (Roche Applied Science, Mannheim, Germany) was used to dynamically monitor cell proliferation rates. The system measures electrical impedance across microelectrodes on the bottom of tissue culture E-plates. The impedance measurement provides quantitative information about cell number, viability, morphology and adhesion. 5,000 cells/well were seeded on E-plate 16 (Roche) in 200 μl medium. 24 hours post-seeding, cells were treated with olaparib to the desired final concentration (1, 3, 10 μM olaparib). The final DMSO percent in all wells was 0.1%. Each treatment condition was measured in triplicate. Dynamic cell index values were monitored in five-minute intervals for 48 hours after treatments. Cell index values were normalized to the vehicle-treated control for each cell.\nCell Proliferation: Real-Time Cell Analyzer (RTCA) xCELLigence System (Roche) was used to dynamically monitor cell proliferation rates. 5,000 cells/well were seeded on E-plate 16 (Roche) in 200 μl medium. Olaparib (AZD-2281, JS Research Chemicals Trading) was dissolved in DMSO. 24 hours post-seeding, cells were treated with olaparib ([…]). Each condition was measured in triplicate and all experiments were done in duplicate at different time points. Dynamic cell index values were monitored for 48 hours after treatment."}, "[3]": {"test_system": "MMR-proficient primary tumor cultures and cancer cell lines", "assay": "RAD51 immunostaining (RAD51 foci formation) after olaparib, MMR-proficient cells", "type": "cell-based, human", "settings": "10 μM olaparib, 24 hours, average of 4 MMR-proficient cultures", "protocol": "as §1, §2, §3"}, "[4]": {"test_system": "MMR-proficient cells", "assay": "Cell proliferation with xCELLigence RTCA system, MMR-proficient cells", "type": "cell-based, human", "settings": "1, 3 and 10 μM olaparib, 48 hours", "protocol": "as §4\nReal-Time Cell Analyzer (RTCA) xCELLigence System (Roche Applied Science, Mannheim, Germany) was used to dynamically monitor cell proliferation rates. The system measures electrical impedance across microelectrodes on the bottom of tissue culture E-plates. The impedance measurement provides quantitative information about cell number, viability, morphology and adhesion. 5,000 cells/well were seeded on E-plate 16 (Roche) in 200 μl medium. […] Each treatment condition was measured in triplicate. Dynamic cell index values were monitored in five-minute intervals for 48 hours after treatments. […]\nCell Proliferation: Real-Time Cell Analyzer (RTCA) xCELLigence System (Roche) was used to dynamically monitor cell proliferation rates. […] Each condition was measured in triplicate and all experiments were done in duplicate at different time points. Dynamic cell index values were monitored for 48 hours after treatment."}, "[5]": {"test_system": "MMR-deficient and MMR-proficient tumor cells", "assay": "γH2AX immunostaining (unrepaired DNA damage) after olaparib", "type": "cell-based, human", "settings": "all cells regardless of MMR status", "protocol": "Primary tumor cultures and immunofluorescence: Nine primary endometrial and ovarian tumor cell cultures were established from tumors of the patients undergoing surgery. Primary tumor cell cultures were grown in RPMI1640 medium (GIBCO) supplemented with 20% FBS, 2 mM L-Glutamine, 100 U/ml penicillin, 100 μg/ml streptomycin, 1 μg/ml fungizone and 10 μg/ml gentamicin up to 20 passages. 25,000 cells/well were seeded on eight-well slides (Nunc) in 400 μl medium and grown for 24 hours. Following exposure to 0 or 10 μM olaparib, slides were rinsed in PBS, fixed in paraformaldehyde at 37° C., permeabilized with 0.1% Triton X-100 and blocked with BSA. […] The percentage of foci positive cells (>5 foci per nucleus) was determined on a Zeiss LSM 510 inverted confocal microscope using Plan-Neofluar 40×/1.3 oil immersion objective. For each experiment, at least 100 nuclei were analyzed.\nThe degree of unrepaired DNA damage upon olaparib treatment was measured with γH2AX immunofluorescence. […]\nγH2AX and RAD51 foci were visualized with Zeiss LSM 510 inverted confocal microscope using Plan-Neofluar 40x/1.3 oil immersion objective and excitation wavelengths of 488 and 750 nm (Chameleon coherent two-photon laser). […] Nuclei with >5 foci were scored positive, and at least 100 nuclei were counted per culture and per condition."}, "[6]": {"test_system": "BRCA1-deficient cells", "settings": "3 μM olaparib; cited from earlier work"}, "[7]": {"test_system": "BRCA2-deficient cells", "settings": "10 μM olaparib; cited from earlier work"}}, "note": "Entries after “also recorded” stand apart in the source; their conditions may differ."}
{"smiles": "O=C(c1cc(Cc2n[nH]c(=O)c3ccccc23)ccc1F)N1CCN(C(=O)C2CC2)CC1", "note": "[olaparib]", "values": [{"measurement": "cells showing RAD51 foci formation (>5 foci per nucleus)", "setting": "[1]", "result": "19±3", "unit": "%"}, {"measurement": "decrease in proliferation versus untreated cells", "setting": "[2]; 1 μM olaparib", "result": 15, "unit": "%"}, {"measurement": "decrease in proliferation versus untreated cells", "setting": "[2]; 3 μM olaparib", "result": 20, "unit": "%"}, {"measurement": "decrease in proliferation versus untreated cells", "setting": "[2]; 10 μM olaparib", "result": 42, "unit": "%"}, {"measurement": "effect on proliferation (in words)", "setting": "[2]; 1, 3 and 10 μM olaparib, MMR-deficient cells", "result": "dose-dependent decrease in proliferation"}, {"measurement": "cells showing RAD51 foci formation (>5 foci per nucleus)", "setting": "[3]", "result": "37±4", "unit": "%"}, {"measurement": "effect on proliferation (in words)", "setting": "[4]", "result": "no effect; also recorded: did not respond to olaparib"}, {"measurement": "increase in number of γH2AX foci compared to baseline", "setting": "[5]; 10 μM olaparib", "result": "4-6 fold"}, {"measurement": "number of γH2AX foci (in words)", "setting": "[5]; olaparib", "result": "drastically increased"}, {"measurement": "decrease in viability", "setting": "[6]", "result": 78, "unit": "%"}, {"measurement": "decrease in viability", "setting": "[7]", "result": 91, "unit": "%"}]}
